# Activity calls are given as the source filed them.
# Tests used:
# [1] = molecular target: Wee1-like protein kinase (Homo sapiens, UniProt P30291); assay: G2/M cell cycle arrest in HeLa, late-stage follow-up, mechanism study for Wee1 degradation inhibitor project, FACS, panel member Wee1 Degradation (AID 2088)
# [2] = molecular target: G2/mitotic-specific cyclin-B1 (Homo sapiens, UniProt P14635); assay: G2/M cell cycle arrest in HeLa, late-stage follow-up, mechanism study for Wee1 degradation inhibitor project, FACS, panel member Cyclin B Degradation (AID 2088)
# [3] = HEp-2 cell cytotoxicity, dose response, cytotoxicity control for RSV inhibitor project, HTS (AID 2410); assay type: functional; details: human respiratory syncytial virus
# [4] = cells
# [5] = tested on: Vero; assay: cells; assay type: functional, cell-based; details: Chlorocebus sabaeus
# [6] = tested on: Vero; assay: cells; assay type: functional; details: Chlorocebus sabaeus
# [7] = cells; assay type: functional, cell-based
# [8] = A Cell Based Secondary Assay To Explore Cytotoxicity of Compounds that Sensitize Mycobacterium Tuberculosis to Beta-Lactam Antibiotics.; assay type: functional
# [9] = cells; assay type: functional, cell-based; remark: listed apart in the source
# [10] = molecular target: Eukaryotic translation initiation factor 4H (Homo sapiens, UniProt Q15056); assay: human eIF4H binding inhibitors, primary screen, translation initiation inhibitor project, biochemical, uHTS, fluorescence polarization (AID 2012)
# [11] = molecular target: Polyadenylate-binding protein 1 (Homo sapiens, UniProt P11940); assay: PABP poly(A) RNA binding inhibitors, primary screen, biochemical, fluorescence polarization, uHTS (AID 2014)
# [12] = molecular target: DNA dC->dU-editing enzyme APOBEC-3A (Homo sapiens, UniProt P31941); assay: Dose Response confirmation of small molecule APOBEC3A DNA Deaminase Inhibitors via a fluorescence-based single-stranded DNA deaminase assay. [Related pubchem assays (depositor defined):AID493011, AID493024]; assay type: functional
# [13] = molecular target: DNA dC->dU-editing enzyme APOBEC-3G (Homo sapiens, UniProt Q9HC16); assay type: functional;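 note: Dose-response counterscreen measuring inhibition of APOBEC3G DNA deaminase activity, run while confirming APOBEC3A inhibitors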
# [14] = HIV-1 Env-mediated cell fusion inhibitors, dose response, CCR5-tropic Env (AID 2279); assay type: functional
# [15] = molecular target: FAD-linked sulfhydryl oxidase ALR (Homo sapiens, UniProt P55789); assay: inhibitors of human ALR sulfhydryl oxidase, dose response, biochemical, H2O2 detection, luminescence, cherry-pick (AID 493248)
# [16] = molecular target: Genome polyprotein (dengue virus type 2, UniProt P29990); assay: Dengue-2 NS5 methyltransferase inhibitors, primary screen, biochemical, confirmation dose response (AID 588689); assay type: functional
# [17] = molecular target: Bcl-2-like protein 10 (Homo sapiens, UniProt Q9HD36); assay: displacers of TR3 peptide from Bcl-B, primary screen, selectivity assay for Bfl-1 inhibitor project, biochemical, fluorescence polarization, FITC-TR3 peptide (AID 748);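 note: fluorescence polarization from a fluorescein-labelled TR3 peptide binding purified Bcl-B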
# [18] = molecular target: T1, RNA-binding protein pos-1 (Caenorhabditis elegans, UniProt G5EF15); assay: inhibitors of POS-1/mex-3 RNA binding, dose response, biochemical, fluorescence polarization (AID 1964);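 note: purified POS-1 fused to maltose binding protein made in E. coli; potency of compounds blocking POS-1 binding to fluorescent RNA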
# T1 sequence (G5EF15 whole entry): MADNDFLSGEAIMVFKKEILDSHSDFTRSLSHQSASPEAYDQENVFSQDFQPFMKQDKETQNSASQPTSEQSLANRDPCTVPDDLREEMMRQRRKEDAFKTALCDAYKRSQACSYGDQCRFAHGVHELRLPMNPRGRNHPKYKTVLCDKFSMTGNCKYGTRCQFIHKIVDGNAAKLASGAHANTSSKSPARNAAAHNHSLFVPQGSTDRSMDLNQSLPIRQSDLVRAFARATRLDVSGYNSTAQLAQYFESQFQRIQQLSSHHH
# [19] = molecular target: T2, Zinc finger protein mex-5 (Caenorhabditis elegans, UniProt Q9XUB2); assay: MEX-5/TCR-2 RNA interaction inhibitors, dose response, biochemical, C. elegans, fluorescence polarization (AID 1960)
# T2 sequence (Q9XUB2 whole entry): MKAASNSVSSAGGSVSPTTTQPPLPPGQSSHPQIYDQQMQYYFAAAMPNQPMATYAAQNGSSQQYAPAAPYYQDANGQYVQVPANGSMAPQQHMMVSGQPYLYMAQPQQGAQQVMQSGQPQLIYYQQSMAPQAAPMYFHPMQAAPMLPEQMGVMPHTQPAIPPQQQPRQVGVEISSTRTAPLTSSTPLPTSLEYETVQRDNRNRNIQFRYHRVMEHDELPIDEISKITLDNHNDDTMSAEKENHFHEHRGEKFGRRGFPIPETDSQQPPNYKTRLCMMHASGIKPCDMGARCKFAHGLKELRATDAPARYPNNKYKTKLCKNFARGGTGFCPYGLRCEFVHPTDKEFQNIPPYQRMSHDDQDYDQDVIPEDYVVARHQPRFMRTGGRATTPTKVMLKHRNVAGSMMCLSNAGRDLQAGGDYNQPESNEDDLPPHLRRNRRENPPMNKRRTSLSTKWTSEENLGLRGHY
# [20] = inhibitors of intracellular T. cruzi replication, confirmation, NIH3T3 host cells, beta-gal luminescence (AID 2044); assay type: functional, cell-based;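 note: intracellular parasites grown in NIH/3T3 mouse fibroblasts as host cells; luminescent beta-galactosidase reporter signal from transgenic T. cruzi replicating inside host cells; inhibitors lower the luminescence signal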
# [21] = cytotoxicity toward NIH3T3 fibroblasts, dose response, counter-screen, cell-based, ATP luminescence, mouse fibroblasts (AID 2010); assay type: functional;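 note: cells exposed to compound for about 90 hours before reading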
# [22] = tested on: HeLa; assay: HeLa cell cytotoxicity, dose response, cytotoxicity control, 24 h, cherry-picked samples (AID 504726); assay type: functional, cell-based; details: Homo sapiens;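 note: potency for cytotoxicity as loss of luminescence signal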
# [23] = tested on: HeLa; assay: HeLa cell cytotoxicity, dose response, cytotoxicity control for MITF activator project, CellTiter-Glo luminescence, cherry-pick samples (AID 540259); assay type: functional, cell-based; details: Homo sapiens
# [24] = M. tuberculosis H37Rv growth inhibitors, H37Rv strain (AID 1626); assay type: functional
# [25] = molecular target: Luciferin 4-monooxygenase (Photinus pyralis, UniProt P08659); assay: firefly luciferase enzyme inhibitors, dose response, biochemical, luminescence (AID 1891)
# [26] = Luminescence Cell-Based Dose Confirmation HTS to Identify Inhibitors of Platelet Dense Granule Release. [Related pubchem assays: 1663 (Primary HTS), 1678 (Summary of Project)]; assay type: functional
# [27] = molecular target: T3, Rac GTPase-activating protein 1 (Homo sapiens, UniProt Q9H0H5); assay: MgcRacGAP GTPase-activating activity inhibitors, confirmation, biochemical, ADP Hunter fluorescence, primary and confirmatory (AID 624330); assay type: functional
# T3 sequence (Q9H0H5 whole entry): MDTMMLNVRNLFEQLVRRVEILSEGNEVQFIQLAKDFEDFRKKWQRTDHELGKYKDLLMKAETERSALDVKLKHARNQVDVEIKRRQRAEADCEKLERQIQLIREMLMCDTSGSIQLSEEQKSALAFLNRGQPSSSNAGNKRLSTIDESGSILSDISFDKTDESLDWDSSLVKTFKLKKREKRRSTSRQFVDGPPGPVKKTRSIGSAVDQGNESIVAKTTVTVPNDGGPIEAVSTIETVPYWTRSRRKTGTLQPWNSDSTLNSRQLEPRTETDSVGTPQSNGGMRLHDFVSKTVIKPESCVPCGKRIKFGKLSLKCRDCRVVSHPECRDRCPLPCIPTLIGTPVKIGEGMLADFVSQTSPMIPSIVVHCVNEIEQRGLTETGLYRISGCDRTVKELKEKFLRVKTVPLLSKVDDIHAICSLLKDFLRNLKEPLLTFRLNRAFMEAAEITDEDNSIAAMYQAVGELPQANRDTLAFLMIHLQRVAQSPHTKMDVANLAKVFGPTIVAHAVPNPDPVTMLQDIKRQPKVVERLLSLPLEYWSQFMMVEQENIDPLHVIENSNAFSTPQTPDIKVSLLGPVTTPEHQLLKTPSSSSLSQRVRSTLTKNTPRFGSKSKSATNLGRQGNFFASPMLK
# [28] = molecular target: Cyclin-dependent kinase 5/CDK5 activator 1 (Homo sapiens, UniProt Q00535); assay: CDK5/p35 kinase inhibitors, dose response, biochemical, cherry-picked samples, set 2 (AID 504545)
# [29] = tested on: HeLa; assay: Cytotoxicity counterscreen assay for transcriptional activators of heat shock protein 70 (Hsp70). [Related pubchem assays: 1203, 1252 ]; assay type: functional; details: Homo sapiens
# [30] = molecular target: Induced myeloid leukemia cell differentiation protein Mcl-1 (Homo sapiens, UniProt Q07820); assay type: functional
# [31] = molecular target: T4, Hexokinase HKDC1 (Homo sapiens, UniProt Q2TB90); assay: HKDC1 hexokinase inhibitors, dose response, biochemical, W721R variant (AID 504729); assay type: functional
# T4 sequence (Q2TB90 whole entry): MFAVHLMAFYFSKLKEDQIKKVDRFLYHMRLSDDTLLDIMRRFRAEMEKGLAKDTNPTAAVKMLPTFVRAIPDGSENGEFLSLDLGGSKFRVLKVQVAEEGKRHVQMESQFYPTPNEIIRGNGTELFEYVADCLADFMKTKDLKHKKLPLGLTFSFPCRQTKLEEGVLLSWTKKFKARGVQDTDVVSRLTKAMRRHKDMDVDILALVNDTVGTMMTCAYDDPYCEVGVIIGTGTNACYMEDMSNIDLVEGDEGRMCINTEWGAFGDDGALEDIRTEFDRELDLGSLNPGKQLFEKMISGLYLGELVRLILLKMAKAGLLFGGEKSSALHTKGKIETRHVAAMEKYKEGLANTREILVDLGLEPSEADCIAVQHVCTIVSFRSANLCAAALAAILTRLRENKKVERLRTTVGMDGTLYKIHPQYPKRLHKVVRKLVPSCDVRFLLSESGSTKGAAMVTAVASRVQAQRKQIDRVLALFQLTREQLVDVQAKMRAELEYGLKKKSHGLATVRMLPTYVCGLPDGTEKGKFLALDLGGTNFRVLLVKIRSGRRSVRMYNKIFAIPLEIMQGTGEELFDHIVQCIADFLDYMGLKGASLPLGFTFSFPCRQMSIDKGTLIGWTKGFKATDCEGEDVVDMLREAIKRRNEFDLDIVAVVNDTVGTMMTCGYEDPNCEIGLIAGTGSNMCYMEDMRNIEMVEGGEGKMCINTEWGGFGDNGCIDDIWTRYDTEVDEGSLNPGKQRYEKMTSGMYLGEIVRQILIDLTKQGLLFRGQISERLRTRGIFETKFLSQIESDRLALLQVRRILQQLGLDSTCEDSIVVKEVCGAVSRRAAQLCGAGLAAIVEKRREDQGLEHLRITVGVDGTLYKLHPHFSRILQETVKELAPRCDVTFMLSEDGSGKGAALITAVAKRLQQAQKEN
# [32] = molecular target: Cytochrome P450 2C19 (Homo sapiens, UniProt P33261); assay: Cytochrome panel assay with activity outcomes. Panel member name: p450-cyp2c19 Compounds with AC50 equal or less than 10 uM are considered active; assay type: functional; details: read-out: AC50
# [33] = molecular target: Cytochrome P450 2D6 (Homo sapiens, UniProt P10635);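 note: CYP2D6 member of a cytochrome P450 panel assay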
# [34] = molecular target: Cytochrome P450 3A4 (Homo sapiens, UniProt P08684);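 note: CYP3A4 tested as one member of a cytochrome P450 panel screen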
# Chain of Cytochrome P450 3A4 (P08684 whole entry): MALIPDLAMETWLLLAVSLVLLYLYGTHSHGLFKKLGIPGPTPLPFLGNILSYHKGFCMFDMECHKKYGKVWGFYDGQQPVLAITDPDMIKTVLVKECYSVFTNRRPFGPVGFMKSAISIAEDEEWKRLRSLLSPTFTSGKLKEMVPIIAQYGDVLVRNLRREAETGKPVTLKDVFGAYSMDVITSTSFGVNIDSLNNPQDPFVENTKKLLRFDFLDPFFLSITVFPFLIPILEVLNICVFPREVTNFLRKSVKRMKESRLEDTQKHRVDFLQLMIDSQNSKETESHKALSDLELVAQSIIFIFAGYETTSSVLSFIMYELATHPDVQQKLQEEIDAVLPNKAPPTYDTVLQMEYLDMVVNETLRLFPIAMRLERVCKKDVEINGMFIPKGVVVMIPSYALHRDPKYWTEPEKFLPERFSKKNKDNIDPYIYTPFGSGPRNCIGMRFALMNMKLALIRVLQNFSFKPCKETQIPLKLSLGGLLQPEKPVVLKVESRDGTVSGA
# Chain of Bcl-2-like protein 10 (Q9HD36 whole entry, the tested form may be a part): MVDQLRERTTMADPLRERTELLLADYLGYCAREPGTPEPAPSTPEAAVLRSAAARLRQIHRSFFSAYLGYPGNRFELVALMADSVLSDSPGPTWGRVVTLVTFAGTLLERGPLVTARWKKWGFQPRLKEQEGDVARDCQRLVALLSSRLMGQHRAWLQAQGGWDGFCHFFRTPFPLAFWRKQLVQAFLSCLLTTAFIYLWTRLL
# Chain of Wee1-like protein kinase (P30291 whole entry): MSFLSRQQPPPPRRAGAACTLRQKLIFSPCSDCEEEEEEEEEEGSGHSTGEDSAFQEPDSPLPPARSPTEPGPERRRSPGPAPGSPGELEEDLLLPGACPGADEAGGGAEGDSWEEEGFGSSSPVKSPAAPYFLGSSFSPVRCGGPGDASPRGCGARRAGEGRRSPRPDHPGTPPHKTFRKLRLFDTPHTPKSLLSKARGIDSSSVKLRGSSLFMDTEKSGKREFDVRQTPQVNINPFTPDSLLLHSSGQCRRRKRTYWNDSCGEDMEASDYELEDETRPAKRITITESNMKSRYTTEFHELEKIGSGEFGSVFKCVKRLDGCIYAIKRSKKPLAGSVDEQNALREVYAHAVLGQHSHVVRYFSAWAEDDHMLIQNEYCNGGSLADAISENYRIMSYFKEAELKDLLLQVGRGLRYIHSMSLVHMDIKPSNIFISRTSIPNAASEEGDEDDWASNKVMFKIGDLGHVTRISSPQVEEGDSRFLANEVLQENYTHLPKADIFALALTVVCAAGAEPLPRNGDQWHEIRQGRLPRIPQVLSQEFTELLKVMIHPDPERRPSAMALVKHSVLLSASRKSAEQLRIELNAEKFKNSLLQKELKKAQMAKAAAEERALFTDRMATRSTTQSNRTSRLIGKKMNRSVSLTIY
# Chain of Luciferin 4-monooxygenase (P08659 whole entry): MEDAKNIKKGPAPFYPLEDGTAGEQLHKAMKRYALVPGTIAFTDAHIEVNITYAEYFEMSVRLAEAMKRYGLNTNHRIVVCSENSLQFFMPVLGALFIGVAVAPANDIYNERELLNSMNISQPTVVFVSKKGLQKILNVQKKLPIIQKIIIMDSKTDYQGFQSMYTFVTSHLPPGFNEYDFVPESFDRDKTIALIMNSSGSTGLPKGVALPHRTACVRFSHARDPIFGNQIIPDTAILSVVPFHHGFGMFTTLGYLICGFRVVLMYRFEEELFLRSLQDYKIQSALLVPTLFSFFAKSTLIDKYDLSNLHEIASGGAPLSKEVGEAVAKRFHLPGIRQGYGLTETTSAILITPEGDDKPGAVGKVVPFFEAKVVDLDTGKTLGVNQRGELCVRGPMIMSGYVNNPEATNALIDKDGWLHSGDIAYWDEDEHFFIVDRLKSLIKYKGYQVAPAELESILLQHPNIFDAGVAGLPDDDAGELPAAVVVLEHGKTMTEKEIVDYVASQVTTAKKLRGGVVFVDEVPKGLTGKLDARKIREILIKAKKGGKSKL
# Chain of G2/mitotic-specific cyclin-B1 (P14635 whole entry): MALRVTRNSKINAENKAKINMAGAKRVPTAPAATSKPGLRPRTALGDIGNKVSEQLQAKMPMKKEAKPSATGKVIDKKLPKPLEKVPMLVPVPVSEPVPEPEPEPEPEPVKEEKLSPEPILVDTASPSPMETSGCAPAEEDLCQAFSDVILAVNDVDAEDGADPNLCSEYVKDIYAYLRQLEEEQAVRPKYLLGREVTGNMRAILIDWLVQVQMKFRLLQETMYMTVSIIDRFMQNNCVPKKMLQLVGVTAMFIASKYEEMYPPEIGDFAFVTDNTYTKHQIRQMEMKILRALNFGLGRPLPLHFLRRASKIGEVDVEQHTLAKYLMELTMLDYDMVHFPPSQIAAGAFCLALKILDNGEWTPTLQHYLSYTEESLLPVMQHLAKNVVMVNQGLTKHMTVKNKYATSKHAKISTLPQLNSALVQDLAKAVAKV
# Chain of Cyclin-dependent kinase 5/CDK5 activator 1 (Q00535 whole entry): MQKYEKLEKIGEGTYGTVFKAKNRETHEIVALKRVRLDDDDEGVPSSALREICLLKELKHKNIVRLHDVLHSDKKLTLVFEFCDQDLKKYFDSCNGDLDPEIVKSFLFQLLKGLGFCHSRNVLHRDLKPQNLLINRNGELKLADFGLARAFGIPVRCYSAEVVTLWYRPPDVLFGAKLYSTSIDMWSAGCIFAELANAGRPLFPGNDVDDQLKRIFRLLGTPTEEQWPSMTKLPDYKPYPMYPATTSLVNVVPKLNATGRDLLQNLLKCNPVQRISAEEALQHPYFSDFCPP
# Chain of Cyclin-dependent kinase 5/CDK5 activator 1 (Q15078 whole entry, further chain): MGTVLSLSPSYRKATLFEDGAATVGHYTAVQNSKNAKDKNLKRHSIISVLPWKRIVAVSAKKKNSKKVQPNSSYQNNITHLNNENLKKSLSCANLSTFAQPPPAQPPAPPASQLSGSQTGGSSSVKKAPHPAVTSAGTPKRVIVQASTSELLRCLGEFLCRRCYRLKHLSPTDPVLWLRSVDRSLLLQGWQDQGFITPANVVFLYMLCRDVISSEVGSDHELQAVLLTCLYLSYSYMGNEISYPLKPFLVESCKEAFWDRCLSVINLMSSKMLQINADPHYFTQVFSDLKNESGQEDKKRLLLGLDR
# Chain of Genome polyprotein (P29990 2492-3391 limits assumed): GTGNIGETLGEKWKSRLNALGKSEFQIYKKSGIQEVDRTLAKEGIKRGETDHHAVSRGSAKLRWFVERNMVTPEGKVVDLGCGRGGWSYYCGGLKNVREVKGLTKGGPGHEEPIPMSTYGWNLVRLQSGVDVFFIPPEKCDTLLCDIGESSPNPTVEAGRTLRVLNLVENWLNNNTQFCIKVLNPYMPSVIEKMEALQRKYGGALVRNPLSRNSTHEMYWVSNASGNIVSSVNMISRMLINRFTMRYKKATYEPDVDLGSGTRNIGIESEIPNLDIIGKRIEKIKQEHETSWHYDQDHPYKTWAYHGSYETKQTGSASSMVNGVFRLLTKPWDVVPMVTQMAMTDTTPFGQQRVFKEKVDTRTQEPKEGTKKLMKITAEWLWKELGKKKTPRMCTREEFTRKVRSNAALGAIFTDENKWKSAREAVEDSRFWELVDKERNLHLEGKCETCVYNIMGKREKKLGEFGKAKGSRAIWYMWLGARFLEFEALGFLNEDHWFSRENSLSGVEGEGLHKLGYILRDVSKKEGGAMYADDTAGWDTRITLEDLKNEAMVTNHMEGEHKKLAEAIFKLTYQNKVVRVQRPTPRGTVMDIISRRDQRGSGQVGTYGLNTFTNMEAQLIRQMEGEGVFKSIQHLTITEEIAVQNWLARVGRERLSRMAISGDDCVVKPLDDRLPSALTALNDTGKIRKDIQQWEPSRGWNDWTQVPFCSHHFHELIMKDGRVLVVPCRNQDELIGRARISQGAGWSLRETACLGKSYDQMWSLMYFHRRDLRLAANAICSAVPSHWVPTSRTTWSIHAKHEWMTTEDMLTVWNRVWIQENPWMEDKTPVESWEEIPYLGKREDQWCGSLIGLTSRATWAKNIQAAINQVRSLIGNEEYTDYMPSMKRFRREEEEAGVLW
# Chain of DNA dC->dU-editing enzyme APOBEC-3A (P31941 whole entry): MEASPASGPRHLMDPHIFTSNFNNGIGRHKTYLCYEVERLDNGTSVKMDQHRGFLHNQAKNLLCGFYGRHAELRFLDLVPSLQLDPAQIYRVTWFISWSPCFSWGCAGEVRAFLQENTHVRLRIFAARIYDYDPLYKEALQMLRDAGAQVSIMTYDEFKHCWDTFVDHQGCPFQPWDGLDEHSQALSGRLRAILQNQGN
# Chain of DNA dC->dU-editing enzyme APOBEC-3G (Q9HC16 whole entry, the tested form may be a part): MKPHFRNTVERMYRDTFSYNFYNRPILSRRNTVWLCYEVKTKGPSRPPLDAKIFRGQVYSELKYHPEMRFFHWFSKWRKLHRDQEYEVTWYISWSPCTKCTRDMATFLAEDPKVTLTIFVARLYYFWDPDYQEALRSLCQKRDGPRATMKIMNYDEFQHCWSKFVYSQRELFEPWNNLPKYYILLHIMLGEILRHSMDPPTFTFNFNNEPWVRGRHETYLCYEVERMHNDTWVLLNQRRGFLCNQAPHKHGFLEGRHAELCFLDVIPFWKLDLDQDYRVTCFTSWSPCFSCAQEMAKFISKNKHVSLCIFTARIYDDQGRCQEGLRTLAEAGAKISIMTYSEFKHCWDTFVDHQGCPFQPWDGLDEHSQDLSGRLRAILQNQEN
# Chain of FAD-linked sulfhydryl oxidase ALR (P55789 whole entry): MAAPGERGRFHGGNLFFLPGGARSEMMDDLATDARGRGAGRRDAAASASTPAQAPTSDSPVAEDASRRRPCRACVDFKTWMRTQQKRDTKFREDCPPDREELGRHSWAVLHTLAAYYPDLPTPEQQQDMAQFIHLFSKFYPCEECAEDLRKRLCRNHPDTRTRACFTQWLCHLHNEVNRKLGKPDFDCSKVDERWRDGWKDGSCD
smiles,measurement,setting,value
c1ccc(-c2cc3c(ccc4nonc43)[nH]2)cc1,EC50,[1],> 49.7 µM (inactive)
same,EC50,[2],> 49.7 µM (inactive)
CCC(C)NC(=O)c1cc2cc3ccc(OC)cc3nc2s1 (stereo unspecified),CC50,[3],44.8 µM (active)
same,IC50,[4],10.8 µM (active)
COCCNC(=O)c1cc(-c2ccc(-c3ccccc3)cc2)nc2ccccc12,CC50,[3],15.2 µM (active)
same,IC50,[5],7.44 µM (active)
same,CC50,[6],19.2 µM (active)
same,IC50,[4],4.81 µM (active)
CCC(=O)NC(=S)Nc1ccc(NC(=O)c2cccc([N+](=O)[O-])c2C)cc1,EC50,[7],> 350 µM (not active)
same,CC50,[8],> 40 µM (active)
same,EC50,[9],> 350 µM (not active)
C[N+]12CCCCC1[C@@H](CO)CCC2 (stereo partly specified),IC50,[10],> 100 µM (inactive)
same,IC50,[11],5.51 µM (active)
same,IC50,[12],2.79 µM (active)
same,IC50,[13],4.19 µM (active)
COC(=O)c1sc(-c2ccc(C(C)(C)C)cc2)cc1NC(=O)c1ccccc1C(=O)O,IC50,[14],49.9 µM (active)
same,AC50,[15],0.087 µM (active)
same,IC50,[16],35.9 µM (active)
Cn1c(=O)n(C)c2cc(S(=O)(=O)Nc3ccccc3O)ccc21,IC50,[17],> 100 µM (inactive)
CN1CCc2c(sc(NC(=O)c3ccc4ccccc4c3)c2C(N)=O)C1,EC50,[18],> 300 µM (not active)
same,EC50,[19],> 300 µM (inconclusive)
same,EC50,[20],3.25 µM (active)
same,EC50,[21],9.24 µM (active)
same,AC50,[22],35.3 µM (active)
same,AC50,[23],24.5 µM (active)
CN(CC(=O)Nc1c(Cl)cccc1Cl)C(=O)CCCN1C(=O)c2ccccc2C1=O,IC50,[17],> 100 µM (inactive)
CN(C)c1ccc(/C=N/NC(=O)c2cc(-c3ccc4c(c3)OCO4)[nH]n2)cc1,CC50,[8],30.2 µM (active)
COc1cc(OC)c2cc[nH]c2c1,IC50,[24],> 100 µM (active)
same,EC50,[25],> 112 µM (not active)
same,EC50,[26],> 112 µM (not active)
same,IC50,[27],108 µM (active)
O=C(c1cnn2c(-c3ccccc3)cc(-c3ccccc3)nc12)N1CCN(Cc2ccccc2)CC1,CC50,[3],15.5 µM (active)
same,AC50,[22],62.6 µM (active)
Cn1c(=O)cc(OCCCC(=O)Nc2cccc(Cl)c2)c2ccccc21,EC50,[1],> 49.7 µM (inactive)
same,EC50,[2],> 49.7 µM (inactive)
COc1cccc(C(=O)ON=C(N)c2ccccn2)c1,EC50,[25],2.07 µM (active)
same,AC50,[28],12.9 µM (active)
CC(C)n1cnc2c(Nc3ccc(C(=O)O)cc3)nc(Cl)nc21,AC50,[28],22.2 µM (active)
CC1=NOC(=O)/C1=C\c1ccc(-c2ccc(Cl)cc2Cl)o1,CC50,[29],> 3.67 µM (not active)
same,IC50,[30],1.7 µM (active)
same,IC50,[31],20.6 µM (inactive)
same,AC50,[32],7.94 µM (inconclusive)
same,IC50,[5],> 25 µM (active)
same,CC50,[6],> 25 µM (active)
same,AC50,[33],14.1 µM (inconclusive)
same,AC50,[34],17.8 µM (inconclusive)

# — ChEMBL document CHEMBL1201862, “PubChem BioAssay data set” (2004)
